# Values joined by “and” are separate entries in the source; they are usually repeats but may differ in a detail not shown here. Equal entries are not always repeated. Where two headings read alike, the source gives them in different places.
# How the values were obtained:
# [1] = biological target: holo-RBP-TTR interaction (Homo sapiens, UniProt P02766); test: Effect on holo-RBP-TTR interaction in human serum (cross-linking, Western blot); conditions: human serum, quantified from gel image, replicates (Supp Fig.14b)
# [2] = in vivo; conditions: male, Sprague Dawley, rat, sc
# [3] = system: male Sprague-Dawley rats; conditions: rat, in vivo
# [4] = biological target: human mu-opioid receptors (Homo sapiens, UniProt P35372); test: biochemical; type: binding; conditions: binding affinity to mu-opioid receptor (Ki)
# Chain of human mu-opioid receptors (P35372 whole entry): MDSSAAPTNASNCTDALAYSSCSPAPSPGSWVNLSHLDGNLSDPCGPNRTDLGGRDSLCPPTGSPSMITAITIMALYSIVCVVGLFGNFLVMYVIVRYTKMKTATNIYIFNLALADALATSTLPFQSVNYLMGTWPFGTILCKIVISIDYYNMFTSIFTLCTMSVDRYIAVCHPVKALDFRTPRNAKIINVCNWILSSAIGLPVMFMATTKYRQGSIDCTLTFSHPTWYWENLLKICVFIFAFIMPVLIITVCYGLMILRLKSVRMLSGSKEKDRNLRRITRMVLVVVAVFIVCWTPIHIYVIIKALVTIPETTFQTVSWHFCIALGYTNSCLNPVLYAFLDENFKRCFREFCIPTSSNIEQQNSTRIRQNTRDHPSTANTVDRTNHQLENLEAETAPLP
# [5] = system: male Sprague-Dawley rats; test: Gastrointestinal (GI) transit (charcoal meal) assays; type: in vivo, rat; conditions: rat, in vivo
# [6] = biological target: T1, kappa opioid receptor (rat) (Rattus norvegicus, UniProt P34975); test: Rat kappa-opioid receptor (agonist radioligand [3H] U 69593) binding assay; conditions: for % Inhibition of Control Specific Binding: kappa-opioid receptor binding, replicates 1st/2nd
# T1 construct: Eurofins Cerep (France)
# T1 sequence (P34975 whole entry): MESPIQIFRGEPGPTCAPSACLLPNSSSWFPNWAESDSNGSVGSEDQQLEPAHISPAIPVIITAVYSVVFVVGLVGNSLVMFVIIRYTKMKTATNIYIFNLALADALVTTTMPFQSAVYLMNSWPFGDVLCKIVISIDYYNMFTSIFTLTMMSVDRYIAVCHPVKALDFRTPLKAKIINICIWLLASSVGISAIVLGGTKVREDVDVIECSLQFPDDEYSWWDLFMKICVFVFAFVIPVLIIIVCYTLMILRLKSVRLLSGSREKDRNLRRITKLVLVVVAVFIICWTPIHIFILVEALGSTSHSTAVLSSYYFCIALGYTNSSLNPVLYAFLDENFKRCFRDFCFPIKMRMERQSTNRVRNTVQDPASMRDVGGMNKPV
# [7] = biological target: purified human TTR (Homo sapiens, UniProt P02766); test: Fluorescence polarization (FP) binding assay, ligands to TTR in buffer
# [8] = in vivo; conditions: male, Sprague Dawley, rat, sc; remark: listed apart in the source
# [9] = biological target: T2, delta-opioid receptor (human) (Homo sapiens, UniProt P41143); test: Human delta-opioid receptor (agonist radioligand [3H]-DADLE) binding assay; conditions: for % Inhibition of Control Specific Binding: delta-opioid receptor binding, replicates 1st/2nd
# T2 construct: Eurofins Cerep (France)
# T2 sequence (P41143 whole entry): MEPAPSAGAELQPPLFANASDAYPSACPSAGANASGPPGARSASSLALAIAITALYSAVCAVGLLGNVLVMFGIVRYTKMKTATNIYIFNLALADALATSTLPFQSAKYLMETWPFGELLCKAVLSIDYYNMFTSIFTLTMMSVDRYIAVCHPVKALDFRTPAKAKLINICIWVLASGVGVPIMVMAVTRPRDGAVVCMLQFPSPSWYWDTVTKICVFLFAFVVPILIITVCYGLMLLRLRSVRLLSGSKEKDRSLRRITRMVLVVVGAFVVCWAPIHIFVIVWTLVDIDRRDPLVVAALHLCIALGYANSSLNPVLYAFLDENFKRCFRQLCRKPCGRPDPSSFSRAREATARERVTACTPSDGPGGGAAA
# [10] = biological target: TTR in human serum (Homo sapiens, UniProt P02766); test: TTR serum fluorescent probe exclusion (FPE) selectivity assay; type: binding; conditions: ligand 10 µM; for %FPE probe fluorescence: human serum, replicates
# [11] = for Concentration: subcutaneous 15.9 μmole/kg, individual animals
smiles,measurement,setting,value
NC(N)=O [Urea],%holo RBP binding to TTR,[1],98.7% and 127% and 74.3%
NC(Cc1cc(I)c(Oc2cc(I)c(O)c(I)c2)c(I)c1)C(=O)O (centres unmarked) [Thyroxine],%holo RBP binding to TTR,[1],7.1% and 6.9% and 6%
COc1ccc2c3c1O[C@H]1[C@@H](OCc4cn(CCNCCCCCCOc5cc(OCCCc6c(C)n[nH]c6C)cc(C(=O)O)c5)nn4)CC[C@@]4(O)[C@@H](C2)N(C)CC[C@]314 [AG10-L2-Oxy],Kp,[2]; percentage CSF to plasma ratio,0
same,Kp,[2]; percentage brain to plasma ratio,0
same,hot plate latency,[3],54.2 ± 4.8 s
same,hot plate latency,[3]; sc,9.5 ± 0.8 s
same,Ki,[4],13 nM
same,GI transit (% of vehicle),[5],9.5 ± 2.8%
same,GI transit as % of vehicle group,[5],9.19% and 12.07% and 6.37% and 7.14% and 12.52%
same,GI transit (% of vehicle),[5]; sc,89.5 ± 3.0%
same,GI transit as % of vehicle group,[5]; sc,86.23% and 92.53% and 87.21% and 92.83% and 88.77%
same,Ki,"[6]; [3H] U 69593 displacement, read-out: binding affinity to kappa-opioid receptor (Ki)",120 nM
same,% Inhibition of Control Specific Binding,[6]; 1.0E-06 M,78.6% and 74.5%
same,% Inhibition of Control Specific Binding,[6]; 1.0E-07 M,32.2% and 33.7%
same,% Inhibition of Control Specific Binding,[6]; 1.0E-08 M,1.0% and 5.5%
same,% Inhibition of Control Specific Binding,[6]; 1.0E-09 M,-3.9% and 9.9%
same,% Inhibition of Control Specific Binding,[6]; 2.0E-06 M,85.0% and 84.1%
same,% Fluorescence polarization (mean),[7]; log [nM] inhibitor 0.990,100.000%
same,% Fluorescence polarization (mean),[7]; log [nM] inhibitor 1.291,102.820%
same,% Fluorescence polarization (mean),[7]; log [nM] inhibitor 1.592,102.360%
same,% Fluorescence polarization (mean),[7]; log [nM] inhibitor 1.893,99.420%
same,% Fluorescence polarization (mean),[7]; log [nM] inhibitor 2.194,100.060%
same,% Fluorescence polarization (mean),[7]; log [nM] inhibitor 2.495,94.250%
same,% Fluorescence polarization (mean),[7]; log [nM] inhibitor 2.796,77.990%
same,% Fluorescence polarization (mean),[7]; log [nM] inhibitor 3.097,63.730%
same,% Fluorescence polarization (mean),[7]; log [nM] inhibitor 3.398,48.160%
same,% Fluorescence polarization (mean),[7]; log [nM] inhibitor 3.699,35.010%
same,% Fluorescence polarization (mean),[7]; log [nM] inhibitor 4.000,21.890%
same,% Fluorescence polarization (mean),[7]; log [nM] inhibitor […],0.000%
same,concentration at 0.03 h,"[8]; 15.9 μmole/kg, Concentration, subcutaneous 15.9 μmole/kg, time 0.03 h, individual animals",1340 nM
same,concentration at 0.5 h,"[8]; 15.9 μmole/kg, Concentration, subcutaneous 15.9 μmole/kg, time 0.5 h, individual animals",4740 nM
same,concentration at 0.75 h,"[8]; 15.9 μmole/kg, Concentration, subcutaneous 15.9 μmole/kg, time 0.75 h, individual animals",4800 nM
same,concentration at 1 h,"[8]; 15.9 μmole/kg, Concentration, subcutaneous 15.9 μmole/kg, time 1 h, individual animals",6680 nM
same,concentration at 2 h,"[8]; 15.9 μmole/kg, Concentration, subcutaneous 15.9 μmole/kg, time 2 h, individual animals",7090 nM
same,concentration at 4 h,"[8]; 15.9 μmole/kg, Concentration, subcutaneous 15.9 μmole/kg, time 4 h, individual animals",2750 nM
same,concentration at 8 h,"[8]; 15.9 μmole/kg, Concentration, subcutaneous 15.9 μmole/kg, time 8 h, individual animals",196 nM
same,concentration at 24 h,"[8]; 15.9 μmole/kg, Concentration, subcutaneous 15.9 μmole/kg, time 24 h, individual animals",18.7 nM
same,AUC(0-inf),[8]; 16 umol/kg,25.8 ± 3.09 µM·h
same,CL/F,[8]; 16 umol/kg,10.3 mL/min/kg
same,Vd/F,[8]; 16 umol/kg,4.22 ± 0.86 L/kg
same,half-life,[8]; 16 umol/kg,4.68 ± 0.52 h
same,Ki,"[9]; [3H]-DADLE displacement, read-out: binding affinity to delta-opioid receptor (Ki)",410 nM
same,% Inhibition of Control Specific Binding,[9]; 1.0E-06 M,50.5% and 49.9%
same,% Inhibition of Control Specific Binding,[9]; 1.0E-07 M,14.8% and 19.2%
same,% Inhibition of Control Specific Binding,[9]; 1.0E-08 M,1.2% and -2.9%
same,% Inhibition of Control Specific Binding,[9]; 1.0E-09 M,-6.1% and -3.7%
same,% Inhibition of Control Specific Binding,[9]; 2.0E-06 M,65.5% and 63.4%
same,% TTR occupancy in human serum,"[10]; FPE probe 3.6 µM, 3 h reading relative to probe alone, text mean ± s.d., table replicates",66.15% and 66.78% and 69.04% and 66.00%
same,%FPE probe fluorescence,[10]; time 0.000 h,0.000%
same,%FPE probe fluorescence,[10]; time 0.083 h,0.549% and 0.762% and -1.844% and -1.645%
same,%FPE probe fluorescence,[10]; time 0.250 h,0.706% and 1.255% and -0.116% and -0.642%
same,%FPE probe fluorescence,[10]; time 0.500 h,2.826% and 3.272% and 3.466% and 3.115%
same,%FPE probe fluorescence,[10]; time 1.000 h,4.537% and 7.078% and 8.406% and 7.892%
same,%FPE probe fluorescence,[10]; time 1.250 h,9.016% and 10.868% and 10.718% and 11.974%
same,%FPE probe fluorescence,[10]; time 1.500 h,11.997% and 15.126% and 11.024% and 13.206%
same,%FPE probe fluorescence,[10]; time 1.750 h,15.076% and 17.659% and 14.693% and 18.815%
same,%FPE probe fluorescence,[10]; time 2.000 h,19.358% and 21.045% and 18.427% and 21.877%
same,%FPE probe fluorescence,[10]; time 2.250 h,25.163% and 23.487% and 22.045% and 24.539%
same,%FPE probe fluorescence,[10]; time 2.500 h,25.806% and 27.529% and 26.249% and 27.302%
same,%FPE probe fluorescence,[10]; time 2.750 h,30.929% and 30.377% and 27.371% and 30.854%
same,%FPE probe fluorescence,[10]; time 3.000 h,33.853% and 33.219% and 30.957% and 33.996%
same,%FPE probe fluorescence,[10]; time 3.500 h,39.372% and 39.356% and 37.472% and 40.606%
same,%FPE probe fluorescence,[10]; time 3.750 h,41.871% and 41.320% and 39.536% and 41.800%
same,%FPE probe fluorescence,[10]; time 4.000 h,43.406% and 44.388% and 42.775% and 45.047%
same,%FPE probe fluorescence,[10]; time 4.250 h,46.096% and 46.093% and 44.165% and 46.692%
same,%FPE probe fluorescence,[10]; time 4.500 h,48.403% and 48.011% and 46.251% and 48.352%
same,%FPE probe fluorescence,[10]; time 4.750 h,49.977% and 52.633% and 49.006% and 51.062%
same,%FPE probe fluorescence,[10]; time 5.000 h,52.730% and 52.156% and 49.883% and 52.401%
same,%FPE probe fluorescence,[10]; time 5.250 h,54.499% and 55.931% and 51.647% and 54.573%
same,%FPE probe fluorescence,[10]; time 5.500 h,56.002% and 55.963% and 54.625% and 55.846%
same,%FPE probe fluorescence,[10]; time 5.750 h,57.400% and 57.044% and 54.205% and 59.081%
same,%FPE probe fluorescence,[10]; time 6.000 h,57.353% and 57.260% and 55.092% and 59.796%
same,k,"[11]; rat, single SC dose 16 µmol/kg",0.15 ± 0.02 h⁻¹
same,Concentration,[11]; time 0.03 h,1980.92 nM and 1419.06 nM and 1694.61 nM
same,Concentration,[11]; time 0.5 h,6994.54 nM and 3873.66 nM and 4264.25 nM
same,Concentration,[11]; time 0.75 h,6976.39 nM and 5017.1 nM and 7890.95 nM
same,Concentration,[11]; time 1 h,6606.43 nM and 5966.57 nM and 8438.91 nM
same,Concentration,[11]; time 2 h,5069.67 nM and 5721.19 nM and 8480.16 nM
same,Concentration,[11]; time 4 h,2353.83 nM and 3068.56 nM and 2535.48 nM
same,Concentration,[11]; time 6 h,732.498 nM and 360.453 nM and 640.073 nM and 668.521 nM
same,Concentration,[11]; time 8 h,132.069 nM and 207.97 nM and 223.861 nM
same,Concentration,[11]; time 12 h,78.9419 nM and 35.0657 nM and 62.9969 nM and 75.6407 nM
same,Concentration,[11]; time 24 h,12.92 nM and 13.41 nM and 14.17 nM

# From publication PMC9226319, “Peripherally restricted transthyretin-based delivery system for probes and therapeutics avoiding opioid-related side effects” (Nature Communications, 2022)
